Measured values from the NIST ThermoML archive (doi:10.1007/s10765-014-1598-0).

Key:
[1] = Liquid, Parallel plate method
[2] = wn = mass fraction of the nth substance listed; details: Liquid, Parallel plate method, w2 = 0

O [water]
[1]
Details	thermal conductivity [W/m/K]
292.04 K, 101 kPa	0.596
292.37 K, 5000 kPa	0.599
292.41 K, 15000 kPa	0.606
301.85 K, 101 kPa	0.612
308.34 K, 101 kPa	0.622
313.16 K, 5000 kPa	0.634
313.35 K, 15000 kPa	0.636
318.33 K, 101 kPa	0.634
327.48 K, 101 kPa	0.645
332.62 K, 15000 kPa	0.657
332.85 K, 5000 kPa	0.656
337.32 K, 101 kPa	0.655
346.93 K, 101 kPa	0.662
351.91 K, 5000 kPa	0.671
353.17 K, 15000 kPa	0.673
356.69 K, 101 kPa	0.668
364.08 K, 5000 kPa	0.679
364.53 K, 15000 kPa	0.682
371.79 K, 101 kPa	0.677
382.36 K, 15000 kPa	0.688
382.41 K, 5000 kPa	0.686
398.77 K, 5000 kPa	0.688
399.64 K, 15000 kPa	0.691

O [water] + O=P(O)(O)O
[2]
Details	thermal conductivity [W/m/K]
292.04 K, 101 kPa	0.596
292.37 K, 5000 kPa	0.599
292.41 K, 15000 kPa	0.606
301.85 K, 101 kPa	0.612
308.34 K, 101 kPa	0.622
313.16 K, 5000 kPa	0.634
313.35 K, 15000 kPa	0.636
318.33 K, 101 kPa	0.634
327.48 K, 101 kPa	0.645
332.62 K, 15000 kPa	0.657
332.85 K, 5000 kPa	0.656
337.32 K, 101 kPa	0.655
346.93 K, 101 kPa	0.662
351.91 K, 5000 kPa	0.671
353.17 K, 15000 kPa	0.673
356.69 K, 101 kPa	0.668
364.08 K, 5000 kPa	0.679
364.53 K, 15000 kPa	0.682
371.79 K, 101 kPa	0.677
382.36 K, 15000 kPa	0.688
382.41 K, 5000 kPa	0.686
398.77 K, 5000 kPa	0.688
399.64 K, 15000 kPa	0.691
